The compounds below were run against T1, Human plasma kallikrein (Homo sapiens, UniProt P03952) (assay: Plasma Kallikrein Assay). Conditions: purified Human plasma kallikrein 0.5 nM, substrate Acetyl-K-P-R-AFC, pH 7.4.
T1 construct: yields a heavy chain (371 amino acids) and a light chain (248 amino acids); purchased Enzyme Research Laboratories
Format: biochemical
Method: The effectiveness of a compound of the present invention as an inhibitor of plasma kallikrein can be determined using a relevant purified serine protease, and an appropriate synthetic substrate. The rate of hydrolysis of the chromogenic or fluorogenic substrate by the relevant serine protease was measured both in the absence and presence of compounds of the present invention. Assays were conducted at rt or at 37° C. […] A decrease in the rate of fluorescence change in the presence of inhibitor is indicative of enzyme inhibition. Such methods are known to one skilled in the art. The results of this assay are expressed as the half-maximal inhibitory concentrations (IC50), or the inhibitory constant, Ki.
Plasma kallikrein determinations were made in 50 mM HEPES buffer at pH 7.4 containing 150 mM NaCl, 5 mM CaCl2), and 0.1% PEG 8000 (polyethylene glycol; Fisher Scientific). […]
Times required to achieve equilibration between enzyme and inhibitor were determined in control experiments. The reactions were performed under linear progress curve conditions and fluorescence increase measured at 405 Ex/510 Em nm. […] IC50 was determined by inflection point from a four parameter logistic curve fit. Ki was calculated using the Cheng Prusoff equation, Ki=IC50/(1+([S]/Km)).

T1 sequence (P03952 391-638 limits assumed): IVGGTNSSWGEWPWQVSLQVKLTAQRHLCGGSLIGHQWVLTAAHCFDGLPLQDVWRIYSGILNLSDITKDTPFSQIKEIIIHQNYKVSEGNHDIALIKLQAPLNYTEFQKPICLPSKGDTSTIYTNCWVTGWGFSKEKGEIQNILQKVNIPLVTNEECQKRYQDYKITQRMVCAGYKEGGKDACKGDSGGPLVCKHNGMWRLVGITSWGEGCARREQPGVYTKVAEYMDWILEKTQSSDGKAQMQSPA
T1 sequence (P03952 20-390 partner limits assumed): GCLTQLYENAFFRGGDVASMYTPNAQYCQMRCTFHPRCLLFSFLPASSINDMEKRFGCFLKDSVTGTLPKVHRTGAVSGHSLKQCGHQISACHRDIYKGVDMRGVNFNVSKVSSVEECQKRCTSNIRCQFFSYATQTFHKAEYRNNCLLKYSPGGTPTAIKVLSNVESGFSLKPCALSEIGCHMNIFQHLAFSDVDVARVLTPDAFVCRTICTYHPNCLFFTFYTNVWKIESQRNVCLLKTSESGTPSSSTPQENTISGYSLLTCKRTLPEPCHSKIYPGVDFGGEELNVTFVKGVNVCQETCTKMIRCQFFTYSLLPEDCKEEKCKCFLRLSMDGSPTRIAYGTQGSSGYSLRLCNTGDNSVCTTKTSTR

Structure (SMILES)	IC50
CC(=O)N1CC[C@H]2CN(c3ccc(Cn4cc(NC(=O)c5cncc(-c6c(C(F)F)ccc(Cl)c6F)n5)cn4)cn3)[C@H]2C1 [Example 131, N-(1-((6-((1R,6S)-3-Acetyl-3,8-diazabicyclo[4.2.0]octan-8-yl)pyridin-3-yl)methyl)-1H-pyrazol-4-yl)-6-(3-chloro-6-(difluoromethyl)-2-fluorophenyl)pyrazine-2-carboxamide]	37.6 nM
CN(C)C(=O)[C@@H]1CCCN1c1ccc(Cn2cc(NC(=O)c3cncc(-c4c(C(F)F)ccc(Cl)c4F)n3)cn2)cn1 [Example 125, (S)-6-(3-Chloro-6-(difluoromethyl)-2-fluorophenyl)-N-(1-((6-(2-(dimethylcarbamoyl)pyrrolidin-1-yl)pyridin-3-yl)methyl)-1H-pyrazol-4-yl)pyrazine-2-carboxamide]	28.3 nM
O=C(Nc1cnn(Cc2cnc(N3CC4C(C3)C4(F)F)nc2)c1)c1cncc(-c2c(C(F)F)ccc(Cl)c2F)n1 (centres unmarked) [Example 90, 6-(3-Chloro-6-(difluoromethyl)-2-fluorophenyl)-N-(1-((2-(6,6-difluoro-3-azabicyclo[3.1.0]hexan-3-yl)pyrimidin-5-yl)methyl)-1H-pyrazol-4-yl)pyrazine-2-carboxamide]	17.8 nM
Cn1cnc(C2CCCN2c2ccc(Cn3cc(NC(=O)c4cncc(-c5c(C(F)F)ccc(Cl)c5F)n4)cn3)cn2)n1 (centres unmarked) [Example 130, 6-(3-Chloro-6-(difluoromethyl)-2-fluorophenyl)-N-(1-((6-(2-(1-methyl-1H-1,2,4-triazol-3-yl)pyrrolidin-1-yl)pyridin-3-yl)methyl)-1H-pyrazol-4-yl)pyrazine-2-carboxamide]	35 nM
CC(c1cnc(N2CC3CC3C2)nc1)n1cc(NC(=O)c2nc(-c3c(C(F)F)ccc(Cl)c3F)cnc2N)cn1 (single isomer, unassigned) [Example 33, N-(1-((1S or 1R)-1-(2-(3-azabicyclo[3.1.0]hexan-3-yl)pyrimidin-5-yl)ethyl)-1H-pyrazol-4-yl)-3-amino-6-(3-chloro-6-(difluoromethyl)-2-fluorophenyl)pyrazine-2-carboxamide]	26.5 nM
Cc1cc(N2CCC2)ncc1[C@@H](C)n1cc(NC(=O)c2cncc(-c3c(C(F)F)ccc(Cl)c3F)n2)cn1 (single isomer, unassigned) [Example 67]	153 nM
O=C(Nc1cnn(Cc2cnc(N3CCCC3CC3(O)CC3)nc2)c1)c1cncc(-c2c(C(F)F)ccc(Cl)c2F)n1 (single isomer, unassigned) [Example 112, (S or R)-6-(3-Chloro-6-(difluoromethyl)-2-fluorophenyl)-N-(1-((2-(2-((1-hydroxycyclopropyl)methyl)pyrrolidin-1-yl)pyrimidin-5-yl)methyl)-1H-pyrazol-4-yl)pyrazine-2-carboxamide]	49.2 nM
O=C(Nc1cnn(Cc2cnc(N3CCCC3C3(O)CC3)nc2)c1)c1cncc(-c2c(C(F)F)ccc(Cl)c2F)n1 (centres unmarked) [Example 107, 6-(3-Chloro-6-(difluoromethyl)-2-fluorophenyl)-N-(1-((2-(2-(1-hydroxycyclopropyl)pyrrolidin-1-yl)pyrimidin-5-yl)methyl)-1H-pyrazol-4-yl)pyrazine-2-carboxamide]	43.5 nM
Cc1nc(N2CCC2)cnc1Cn1cc(NC(=O)c2cncc(-c3c(C(F)F)ccc(Cl)c3F)n2)cn1 [Example 24, N-(1-((5-(Azetidin-1-yl)-3-methylpyrazin-2-yl)methyl)-1H-pyrazol-4-yl)-6-(3-chloro-6-(difluoromethyl)-2-fluorophenyl)pyrazine-2-carboxamide]	26.8 nM
O=C(Nc1cnn(Cc2ccc(N3CCCC3CCO)nc2)c1)c1cncc(-c2c(C(F)F)ccc(Cl)c2F)n1 (centres unmarked) [Example 115, 6-(3-Chloro-6-(difluoromethyl)-2-fluorophenyl)-N-(1-((6-(2-(2-hydroxyethyl)pyrrolidin-1-yl)pyridin-3-yl)methyl)-1H-pyrazol-4-yl)pyrazine-2-carboxamide]	3.5 nM
COC[C@@H]1CCCN1c1ccc(Cn2cc(NC(=O)c3cncc(-c4c(C(F)F)ccc(Cl)c4F)n3)cn2)cn1 [Example 120, (S)-6-(3-Chloro-6-(difluoromethyl)-2-fluorophenyl)-N-(1-((6-(2-(methoxymethyl)pyrrolidin-1-yl)pyridin-3-yl)methyl)-1H-pyrazol-4-yl)pyrazine-2-carboxamide]	17.8 nM

Next, values leading:

IC50	Structure (SMILES)
5.6 nM	CC(c1cnc(N2Cc3cncnc3C2)nc1)n1cc(NC(=O)c2cncc(-c3c(C(F)F)ccc(Cl)c3F)n2)cn1 (centres unmarked) [Example 78, 6-(3-Chloro-6-(difluoromethyl)-2-fluorophenyl)-N-(1-(1-(2-(5,7-dihydro-6H-pyrrolo[3,4-d]pyrimidin-6-yl)pyrimidin-5-yl)ethyl)-1H-pyrazol-4-yl)pyrazine-2-carboxamide]
6.1 nM	CC(c1cnc(N2CC[C@H]2CN[C@H](C)C(C)(C)O)nc1)n1cc(NC(=O)c2cncc(-c3c(C(F)F)ccc(Cl)c3F)n2)cn1 (stereo partly drawn) [Example 182, 6-(3-Chloro-6-(difluoromethyl)-2-fluorophenyl)-N-(1-(1-(2-((S)-2-((((R)-3-hydroxy-3-methylbutan-2-yl)amino)methyl)azetidin-1-yl)pyrimidin-5-yl)ethyl)-1H-pyrazol-4-yl)pyrazine-2-carboxamide]
20.6 nM	CC1CCN1c1ncc(C(C)n2cc(NC(=O)c3cncc(-c4c(C(F)F)ccc(Cl)c4F)n3)cn2)cn1 (racemic) [Example 100, 6-(3-Chloro-6-(difluoromethyl)-2-fluorophenyl)-N-(1-((R and S)-1-(2-((R and S)-2-methylazetidin-1-yl)pyrimidin-5-yl)ethyl)-1H-pyrazol-4-yl)pyrazine-2-carboxamide]
2.3 nM	CC(c1cnc(N2CC[C@H]2CN2CC(C)(O)C2)nc1)n1cc(NC(=O)c2cncc(-c3c(C(F)F)ccc(Cl)c3F)n2)cn1 (stereo partly drawn) [Example 174, 6-(3-Chloro-6-(difluoromethyl)-2-fluorophenyl)-N-(1-(1-(2-((S)-2-((3-hydroxy-3-methylazetidin-1-yl)methyl)azetidin-1-yl)pyrimidin-5-yl)ethyl)-1H-pyrazol-4-yl)pyrazine-2-carboxamide]
3.3 nM	CC(c1cnc(N2CC[C@H]2CN2CC[C@@H](O)C[C@@H]2C)nc1)n1cc(NC(=O)c2cncc(-c3c(C(F)F)ccc(Cl)c3F)n2)cn1 (stereo partly drawn) [Example 178, 6-(3-Chloro-6-(difluoromethyl)-2-fluorophenyl)-N-(1-(1-(2-((S)-2-(((2S,4R)-4-hydroxy-2-methylpiperidin-1-yl)methyl)azetidin-1-yl)pyrimidin-5-yl)ethyl)-1H-pyrazol-4-yl)pyrazine-2-carboxamide]
7.3 nM	CC(N)C1CCCN1c1ncc(Cn2cc(NC(=O)c3cncc(-c4c(C(F)F)ccc(Cl)c4F)n3)cn2)cn1 (single isomer, unassigned) [Example 156, N-(1-((2-(2-(1-Aminoethyl)pyrrolidin-1-yl)pyrimidin-5-yl)methyl)-1H-pyrazol-4-yl)-6-(3-chloro-6-(difluoromethyl)-2-fluorophenyl)pyrazine-2-carboxamide]
65.1 nM	O=C(Nc1cnn(Cc2cnc(N3CCCC3CO)nc2)c1)c1cncc(-c2c(C(F)F)ccc(Cl)c2F)n1 (centres unmarked) [Example 113, 6-(3-Chloro-6-(difluoromethyl)-2-fluorophenyl)-N-(1-((2-(2-(hydroxymethyl)pyrrolidin-1-yl)pyrimidin-5-yl)methyl)-1H-pyrazol-4-yl)pyrazine-2-carboxamide]
41.3 nM	CC(C)(O)CC1CCCN1c1ncc(Cn2cc(NC(=O)c3cncc(-c4c(C(F)F)ccc(Cl)c4F)n3)cn2)cn1 (centres unmarked) [Example 106, 6-(3-Chloro-6-(difluoromethyl)-2-fluorophenyl)-N-(1-((2-(2-(2-hydroxy-2-methylpropyl)pyrrolidin-1-yl)pyrimidin-5-yl)methyl)-1H-pyrazol-4-yl)pyrazine-2-carboxamide]
9.5 nM	O=C(Nc1cnn(Cc2cnc(N3CCCC3CN3C[C@H](F)[C@@H](F)C3)nc2)c1)c1cncc(-c2c(C(F)F)ccc(Cl)c2F)n1 (stereo partly drawn) [Example 158, 6-(3-Chloro-6-(difluoromethyl)-2-fluorophenyl)-N-(1-((2-(2-(((35,4S)-3,4-difluoropyrrolidin-1-yl)methyl)pyrrolidin-1-yl)pyrimidin-5-yl)methyl)-1H-pyrazol-4-yl)pyrazine-2-carboxamide]
21.7 nM	CC(c1cnc(N2CCN(C)C(=O)C2)nc1)n1cc(NC(=O)c2cncc(-c3c(C(F)F)ccc(Cl)c3F)n2)cn1 (centres unmarked) [Example 95, 6-(3-Chloro-6-(difluoromethyl)-2-fluorophenyl)-N-(1-(1-(2-(4-methyl-3-oxopiperazin-1-yl)pyrimidin-5-yl)ethyl)-1H-pyrazol-4-yl)pyrazine-2-carboxamide]
412 nM	CC(c1cnc(N2CC3CC3C2C#N)nc1)n1cc(NC(=O)c2cncc(-c3c(C(F)F)ccc(Cl)c3F)n2)cn1 (single isomer, unassigned) [Example 197]
5 nM	O=C(Nc1cnn(Cc2cnc(N3CCC4OCCC43)nc2)c1)c1cncc(-c2c(C(F)F)ccc(Cl)c2F)n1 (centres unmarked) [Example 75, 6-(3-Chloro-6-(difluoromethyl)-2-fluorophenyl)-N-(1-((2-(hexahydro-4H-furo[3,2-b]pyrrol-4-yl)pyrimidin-5-yl)methyl)-1H-pyrazol-4-yl)pyrazine-2-carboxamide]

— patent publication US20230416227A1, “PLASMA KALLIKREIN INHIBITORS” (Merck Sharp & Dohme LLC, priority 2020, published 2023)
